# Reference: patent US8053426B2, “Progesterone receptor antagonists” (Bayer Schering Pharma AG, priority 2006, dated 2011)
# Legend:
# [1] = target: T1, human progesterone receptor B (PR-B) (Homo sapiens, UniProt P06401); test: Antagonistic activity against promegestone, MTV-LUC reporter in SK-N-MC cells stably transfected with PR-B; format: cell-based; conditions: antagonistic activity vs 0.1 nmol/l promegestone, mean ± SD; for IC50: read-out: Potency IC50, PR-B
# T1 construct: expressed in transfected cells; host or cells: SK-N-MC human neuroblastoma cells, stably transfected with pRChPR-B-neo and pMMTV-LUC
# T1 sequence (P06401 1-933): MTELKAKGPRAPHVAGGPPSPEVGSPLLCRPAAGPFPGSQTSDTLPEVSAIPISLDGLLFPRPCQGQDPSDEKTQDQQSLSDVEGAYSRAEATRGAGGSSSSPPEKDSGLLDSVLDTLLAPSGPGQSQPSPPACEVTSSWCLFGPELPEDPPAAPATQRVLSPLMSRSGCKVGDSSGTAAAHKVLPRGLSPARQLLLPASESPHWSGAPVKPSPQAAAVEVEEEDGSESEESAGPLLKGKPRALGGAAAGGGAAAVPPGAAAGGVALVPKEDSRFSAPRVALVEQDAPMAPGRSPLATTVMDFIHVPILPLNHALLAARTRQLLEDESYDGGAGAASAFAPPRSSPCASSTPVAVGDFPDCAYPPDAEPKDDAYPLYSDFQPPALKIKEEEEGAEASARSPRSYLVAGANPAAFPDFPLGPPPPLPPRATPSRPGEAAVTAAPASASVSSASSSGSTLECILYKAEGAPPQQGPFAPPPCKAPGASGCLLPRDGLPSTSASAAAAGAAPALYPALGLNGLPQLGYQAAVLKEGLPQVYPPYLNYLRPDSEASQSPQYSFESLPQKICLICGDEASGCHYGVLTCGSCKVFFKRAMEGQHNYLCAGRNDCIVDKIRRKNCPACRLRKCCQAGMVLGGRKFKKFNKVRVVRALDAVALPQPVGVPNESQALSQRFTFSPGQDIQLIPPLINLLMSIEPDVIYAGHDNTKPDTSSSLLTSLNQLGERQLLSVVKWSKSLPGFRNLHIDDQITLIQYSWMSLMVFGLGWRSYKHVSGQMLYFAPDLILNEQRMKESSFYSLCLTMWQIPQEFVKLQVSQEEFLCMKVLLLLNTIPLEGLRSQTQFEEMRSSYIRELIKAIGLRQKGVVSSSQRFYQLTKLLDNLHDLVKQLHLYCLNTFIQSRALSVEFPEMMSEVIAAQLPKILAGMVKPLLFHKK
# Procedure: (§1) SK-N-MC cells (human neuroblastoma cells), stably transfected with plasmids, which express human progesterone receptor B (pRChPR-B-neo) or human progesterone receptor A (pRChPR-A-neo) and a reporter construct (pMMTV-LUC), were incubated for 24 hours, either in the absence (negative control) or in the presence of increasing amounts of 11β-[4-(1,2-dihydroxy-ethyl)phenyl]-20,20,21,21,21-pentafluoro-17-hydroxy-19-nor-17α-pregna-4,9-dien-3-one or 20,20,21,21,21-pentafluoro-17-hydroxy-11β-[4-(hydroxyacetyl)-phenyl]-19-nor-17α-pregna-4,9-dien-3-one (0.01 nmol/l, 0.1 nmol/l, 1 nmol/l, 10 nmol/l, 100 nmol/l and 1 μmol/l), in order to determine the agonistic efficacy. As a positive control of reporter gene induction, the cells were treated with the synthetic gestagen promegestone (0.01 nmol/l, 0.1 nmol/l, 1 nmol/l, 10 nmol/l, 100 nmol/l and 1 μmol/l). To determine the antagonistic activity, the cells were treated with 0.1 nmol/l of promegestone and additionally with increasing amounts of 11β-[4-(1,2-dihydroxyethyl)phenyl]-20,20,21,21,21-pentafluoro-17-hydroxy-19-nor-17α-pregna-4,9-dien-3-one or 20,20,21,21,21-pentafluoro-17-hydroxy-11β-[4-(hydroxyacetyl)phenyl]-19-nor-17α-pregna-4,9-dien-3-one (0.01 nmol/l, 0.1 nmol/l, 1 nmol/l, 10 nmol/l, 100 nmol/l and 1 μmol/l). […] The activity of the LUC reporter gene (LUC=luciferase) was determined in the cell lyzates and measured as RLU (relative light units).
# [2] = Metabolic stability in human liver microsomes (HLM); format: in vitro ADME; conditions: 60 minutes, 37° C.
# Procedure: Human liver microsomes (HLM) were used to assess the metabolic stability of substances of general formula I.
# The incubations were carried out in duplicate with HLM and an NADPH-generating system using a shaker bath at 37° C. The incubation mixture (consisting of cofactor solution, potassium phosphate buffer and microsome preparation) was freshly prepared according to the Table below.
# (§2) The incubation volume was 0.25 ml. The incubation mixture was preincubated for three minutes at 37° C. The reaction was started by the addition of the test substance (final concentration 50 μM). The reaction was ended after an incubation time of 60 minutes by the addition of 250 μl of methanol and the mixture was then centrifuged to pellet the protein. The samples were stored at −18° C. for subsequent RP-HPLC analysis.
# as §2, with “concentration 10” for “concentration 50”
# [3] = target: T2, human progesterone receptor A (PR-A) (Homo sapiens, UniProt P06401); test: Agonistic activity, MTV-LUC reporter in SK-N-MC cells stably transfected with PR-A; format: cell-based; conditions: 24 hours; for Efficacy, PR-A: relative LUC activity
# T2 construct: expressed in transfected cells; host or cells: SK-N-MC human neuroblastoma cells, stably transfected with pRChPR-A-neo and pMMTV-LUC
# T2 sequence (P06401 1-769 isoform P06401-2): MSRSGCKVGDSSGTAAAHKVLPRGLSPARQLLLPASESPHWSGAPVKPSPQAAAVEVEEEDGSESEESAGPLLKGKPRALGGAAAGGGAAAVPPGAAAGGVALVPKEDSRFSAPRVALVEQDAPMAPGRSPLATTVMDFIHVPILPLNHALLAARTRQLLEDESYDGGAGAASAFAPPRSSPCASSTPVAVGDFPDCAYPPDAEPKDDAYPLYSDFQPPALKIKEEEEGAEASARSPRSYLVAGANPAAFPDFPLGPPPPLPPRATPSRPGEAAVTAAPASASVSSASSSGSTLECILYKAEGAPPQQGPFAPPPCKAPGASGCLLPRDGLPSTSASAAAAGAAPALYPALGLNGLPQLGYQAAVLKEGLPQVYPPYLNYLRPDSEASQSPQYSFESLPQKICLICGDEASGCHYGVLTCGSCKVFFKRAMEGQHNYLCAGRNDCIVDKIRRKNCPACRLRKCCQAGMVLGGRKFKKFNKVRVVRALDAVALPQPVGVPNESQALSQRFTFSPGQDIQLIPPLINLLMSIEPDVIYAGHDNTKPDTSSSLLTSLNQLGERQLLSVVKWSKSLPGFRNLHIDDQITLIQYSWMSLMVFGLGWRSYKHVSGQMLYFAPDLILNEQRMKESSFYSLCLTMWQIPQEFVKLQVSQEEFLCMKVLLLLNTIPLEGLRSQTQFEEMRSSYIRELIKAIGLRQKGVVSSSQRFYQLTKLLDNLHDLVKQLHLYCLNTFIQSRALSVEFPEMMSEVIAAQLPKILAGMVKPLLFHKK
# Procedure: as §1
# pregnant rats = test: Abortion test on female rats; format: in vivo, rat; conditions: 1.5 mg/kg subcutaneously daily d5-d7 p.c., autopsy d9 p.c.
# Procedure: The antigestagenic action of the progesterone receptor antagonists according to the invention was tested on pregnant rats (6 rats per group) on days 5 to 7 post coitum under conventional housing and feeding conditions.
# After successful copulation, the pregnant animals (presence of sperm in the vaginal smear on day 1 of pregnancy=d1 p.c.) were randomized and divided up into the treatment group and the control group. Each animal was then injected subcutaneously with 1.5 mg/kg of the test substance (11β-[4-(1,2-Dihydroxyethyl)phenyl]-20,20,21,21,21-pentafluoro-17-hydroxy-19-nor-17α-pregna-4,9-dien-3-one according to Example 1 or 20,20,21,21,21-pentafluoro-17-hydroxy-11β-[4-(hydroxyacetyl)phenyl]-19-nor-17α-pregna-4,9-dien-3-one according to Example 3) or 1.0 ml/kg of vehicle (benzyl benzoate/castor oil: 1+4[v/v]) daily from day 5 to day 7 (d5-d7 p.c.).
# The autopsy was performed on day 9 (d9 p.c.). As the parameter of antigestagenic action, the uterus was examined for the presence of implantation sites. The complete absence of implantation sites as well as the presence of pathological, hemorrhagic or otherwise abnormal implantation sites on day 9 (d9 p.c.) were evaluated as abortions.
# [4] = target: T1, human progesterone receptor B (PR-B); test: Agonistic activity, MTV-LUC reporter in SK-N-MC cells stably transfected with PR-B; format: cell-based; conditions: 24 hours; for Efficacy, PR-B: relative LUC activity
# Procedure: as §1
# 35-day-old rabbits = test: Determination of the McPhail index on the rabbit; format: in vivo; conditions: 3 mg/kg/d test substance + 0.2 mg/kg/d progesterone s.c. day 7 to 10, autopsy day 11, 1=no, 4=maximum glandular differentiation
# Procedure: The antigestagenic efficacy of the progesterone receptor antagonists according to the invention was tested on 35-day-old rabbits under conventional housing and feeding conditions.
# As a preparatory measure, the animals were treated subcutaneously with 5.0 μg/kg/d with 17β-estradiol from day 1 to day 4. To determine the antigestagenic efficacy, the animals were treated subcutaneously from day 7 to day 10 with 0.2 mg/kg/d of progesterone and 3 mg/kg/d of the test substance (11β-[4-(1,2-Dihydroxyethyl)phenyl]-20,20,21,21,21-pentafluoro-17-hydroxy-19-nor-17α-pregna-4,9-dien-3-one according to Example 1 or 20,20,21,21,21-pentafluoro-17-hydroxy-11β-[4-(hydroxyacetyl)phenyl]-19-nor-17α-pregna-4,9-dien-3-one according to Example 3) simultaneously. The vehicle used was a mixture of benzyl benzoate and castor oil in a ratio of 1+4 (v/v).
# The autopsy was performed on day 11 after the start of treatment. The uteri were removed and fixed for histology. The McPhail index (degree of glandular differentiation) was determined by means of light microscopy (evaluation: 1=no glandular differentiation; 4=maximum glandular differentiation) as the parameter of antigestagenic efficacy (inhibition of the glandular differentiation caused by progesterone).
# [5] = target: T2, human progesterone receptor A (PR-A); test: Antagonistic activity against promegestone, MTV-LUC reporter in SK-N-MC cells stably transfected with PR-A; format: cell-based; conditions: for selectivity in respect of one progesterone receptor isoform: PR-A versus PR-B; for selectivity in respect of one progesterone receptor isoform / Efficacy, PR-A / IC50: SK-N-MC cells; for Efficacy, PR-A / IC50: antagonistic activity vs 0.1 nmol/l promegestone, mean ± SD; for IC50: read-out: Potency IC50, PR-A; for times less potent than 11β-(4-acetylphenyl)-20,20,21,21,21-pentafluoro-17-hydroxy-19-nor-17α-pregna-4,9-dien-3-one at the progesterone receptors: antagonistic potency, figures match the ratio of the PR-A IC50 values
# Procedure: as §1
# [6] = HLM 1.0 mg/ml, test substance 50 μM
Structure (SMILES),"Efficacy, PR-B [1] [%]",IC50 [1] [nM],"recovered in the supernatant (RP-HPLC) [2, 6]","Efficacy, PR-A [3]",Abortion rate (pregnant rats) [%],"Efficacy, PR-B [4]",McPhail index [median] (35-day-old rabbits),selectivity in respect of one progesterone receptor isoform [5],"Efficacy, PR-A [5] [%]",IC50 [5] [nM],"times less potent than 11β-(4-acetylphenyl)-20,20,21,21,21-pentafluoro-17-hydroxy-19-nor-17α-pregna-4,9-dien-3-one at the progesterone receptors [5]","recovered in the supernatant (RP-HPLC) ([2]; HLM 0.4 mg/ml, test substance 10 μM) [%]","EC50 ([3]; mean ± SD, read-out: Potency EC50, PR-A) [nM]","EC50 ([4]; mean ± SD, read-out: Potency EC50, PR-B) [nM]"
"C[C@]12C[C@H](c3ccc(C(O)CO)cc3)C3=C4CCC(=O)C=C4CC[C@H]3[C@@H]1CC[C@@]2(O)C(F)(F)C(F)(F)F (mixture of isomers) [Example 1, 11β-[4-(1,2-dihydroxyethyl)phenyl]-20,20,21,21,21-pentafluoro-17-hydroxy-19-nor-17α-pregna-4,9-dien-3-one]",100 ± 0,3.47 ± 0.46,about 70%,no effect,100,no effect,1.0,Neither compound exhibits any selectivity,100 ± 0,1.87 ± 0.23,about 130 times,,,
"CC(=O)c1ccc([C@H]2C[C@@]3(C)[C@@H](CC[C@@]3(O)C(F)(F)C(F)(F)F)[C@@H]3CCC4=CC(=O)CCC4=C32)cc1 [11β-(4-acetylphenyl)-20,20,21,21,21-pentafluoro-17-hydroxy-19-nor-17α-pregna-4,9-dien-3-one, reference compound]",100 ± 0,0.02 ± 0.01,,,,,,,100 ± 0,0.014 ± 0.01,,60,,
"C[C@]12C[C@H](c3ccc(C(=O)CO)cc3)C3=C4CCC(=O)C=C4CC[C@H]3[C@@H]1CC[C@@]2(O)C(F)(F)C(F)(F)F [Example 3, 20,20,21,21,21-pentafluoro-17-hydroxy-11β-[4-(hydroxyacetyl)phenyl]-19-nor-17α-pregna-4,9-dien-3-one]",100 ± 0,0.28 ± 0.08,about 80%,no effect,100,no effect,1.0,Neither compound exhibits any selectivity,100 ± 0,0.18 ± 0.06,about 13 times,,,
"CCC(=O)[C@@]1(C)CC[C@H]2[C@@H]3CCC4=CC(=O)CCC4=C3CC[C@@]21C [Promegestone, promegestone, reference compound]",,,,100%,,100%,,,,,,,0.23 ± 0.03,0.03
